# In US20210121437A1, “[…] AGENTS […] FLAVONOID DERIVATIVES TARGETING KINASES, SIRTUINS AND ONCOGENIC AGENTS FOR THE TREATMENT OF MULTIPLE MYELOMA, LYMPHOMA, AND […]” (priority 2015, published 2021):
# Where two headings read alike, the source gives them in different places.
# Assays:
# [1] = biological target: T1, FLT3(D835Y) (Homo sapiens, UniProt P36888, D835Y); format: binding; conditions: Table 4; read-out: IC50 Kinases FLT3-D835Y
# T1 construct: full-length constructs were used for small, single domain kinases, and catalytic domain constructs for large multi-domain kinases; T7 phage fusion (most assays) or DNA tag for qPCR (HEK-293-made kinases); made in house
# Experimental: (§1) Cannabis flavonoids and their analogs were subjected to kinase inhibition assay. The compounds were first screened at a single concentration of 10 μM in the primary assay. […] To determine the kd or IC50 values, competition binding assays were established, authenticated and executed as described previously. […] See also, Karaman et al., “A Quantitative Analysis Of Kinase Inhibitor Selectivity”, Nat. Biotechnol. […] For most assays, kinases were fused to T7 phage strains (Fabian, supra) and for the other assays, kinases were produced in HEK-293 cells after which they were tagged with DNA for quantitative PCR detection. In general, full-length constructs were used for small, single domain kinases, and catalytic domain constructs for large multi-domain kinases. […] The liganded beads were blocked with excess biotin and washed with blocking buffer (SeaBlock (Pierce), 1% BSA, 0.05% Tween 20, 1 mM DTT) to remove unbound ligand and to reduce non-specific phage binding. […] All reactions were performed in polypropylene 384-well plates in a final volume of 0.04 ml. […] The kinase concentration in the eluates was measured by quantitative PCR. An illustration of the kinase interaction process is presented below. Kd/IC50 values were determined using a standard dose response curve using the hill equation. Curves were fitted using a non-linear least square fit with the Levenberg-Marquardt algorithm.
# [2] = tested on: THP-1 Acute Myeloid Leukemia cell line; test: anticancer cell proliferation assay (WST-1); format: cell-based; conditions: Table 4; read-out: IC50 Acute Myeloid Leukemia cell lines THP-1
# Experimental: (§2) Anticancer activity was tested against several standard cancer cell lines including brain, breast, Kaposi sarcoma, leukemia, lung, melanoma, tenosynovial giant cell tumor, ovarian, pancreatic, colon and prostate cancer. Cells were trypsinized and plated into 96 well plates in 50 μl of media and incubated overnight. The next day approximately 18 hours after plating, 50 μl of media containing the required flavonoid-based pharmaceutical composition was added per well. Cells were plated at a density so that 72 hours post drug addition, the cells will be in log phase (500-2000 cells/well). The compounds and extracts were solubilized in Dimethyl sulfoxide (DMSO). The cells are allowed to proliferate for 72 hours 37° C. in humidified atmosphere of 5% CO2. The experiment is terminated using WST-1 (Roche®) 10 μl per well and absorbance is read at 450 nm/690 nm. The effect of drugs on growth is assessed as percent of cell viability. The IC50 values were determined from the extract dose versus control growth curves using Graphpad Prism® software. All experiments were carried out in duplicate and the mean results determined.
# [3] = tested on: Normal Bone marrow; test: anticancer cell proliferation assay (WST-1); format: cell-based; conditions: Table 4
# Experimental: as §2, with “Bioactivity of the above-described compounds has been verified by an anticancer cell proliferation assay using the WST-1 (4-[3-(4-iodophenyl)-2-(4-nitrophenyl)-2H-5-tetrazoliol-1, 3-benzene disulfonate) colorimetric assay by Roche Life Sciences®. Anticancer” for “Anticancer”
# [4] = tested on: 60 cancer cell line panel; conditions: US National Cancer Institute 60 cancer cell line panel; cited from earlier work
# [5] = tested on: human pancreatic cancer xenograft CFPAC-1 cells; test: human pancreatic cancer xenograft CFPAC-1 in scid mice; format: in vivo; conditions: CFPAC-1 xenograft
# Text: The results of the anticancer activity are presented in Tables 3 and 4 (above) and in FIG. 6, Hela cells shown at (A) and CMK cells at (B) and MV4-11 and MOLT-14 acute myeloid leukemia cells.
# [6] = biological target: T2, FLT3(ITD) (Homo sapiens, UniProt P36888); format: binding; conditions: Table 1
# T2 construct: In general, full-length constructs were used for small, single domain kinases, and catalytic domain constructs for large multi-domain kinases; fused on or other part: T7 phage fusion or DNA tag for qPCR detection
# Experimental: as §1
# [7] = tested on: MV4-11 (Leukemia); test: anticancer cell proliferation assay (WST-1); format: cell-based
# Experimental: as §2
# [8] = tested on: MM.1S (Multiple Myeloma); test: anticancer cell proliferation assay (WST-1); format: cell-based; conditions: 72 hours
# Experimental: as §2, with “Bioactivity of the above-described compounds has been verified by an anticancer cell proliferation assay using the WST-1 (4-[3-(4-iodophenyl)-2-(4-nitrophenyl)-2H-5-tetrazoliol-1, 3-benzene disulfonate) colorimetric assay by Roche Life Sciences®. Anticancer” for “Anticancer”
# [9] = tested on: KMS-11 (Multiple myeloma); test: anticancer cell proliferation assay (WST-1); format: cell-based; conditions: 72 hours
# Experimental: as §2, with “Bioactivity of the above-described compounds has been verified by an anticancer cell proliferation assay using the WST-1 (4-[3-(4-iodophenyl)-2-(4-nitrophenyl)-2H-5-tetrazoliol-1, 3-benzene disulfonate) colorimetric assay by Roche Life Sciences®. Anticancer” for “Anticancer”
# [10] = biological target: T3, PIK4CB (Homo sapiens, UniProt Q9UBF8); test: kinase competition binding assay; conditions: Table 1
# T3 construct: T7 phage fusion (most assays) or DNA tag for qPCR (HEK-293-made kinases); made in house
# Experimental: (§3) Cannabis flavonoids and their analogs were subjected to kinase inhibition assay. The compounds were first screened at a single concentration of 10 μM in the primary assay. […]. To determine the kd or IC50 values, competition binding assays were established, authenticated and executed as described previously. Fabian et al., “A Small Molecule-Kinase Interaction Map For Clinical Kinase Inhibitors.”, Nat Biotechnol, 23(3):329-36, Epub (2005). See also, Karaman et al., “A Quantitative Analysis Of Kinase Inhibitor Selectivity”, Nat. Biotechnol. […] For most assays, kinases were fused to T7 phage strains (Fabian, supra) and for the other assays, kinases were produced in HEK-293 cells after which they were tagged with DNA for quantitative PCR detection. In general, full-length constructs were used for small, single domain kinases, and catalytic domain constructs for large multi-domain kinases. The binding assays utilized streptavidin-coated magnetic beads treated with biotinylated small molecule ligands for 30 minutes at room temperature which generated affinity resins for the kinase assays. The liganded beads were blocked with excess biotin and washed with blocking buffer (SeaBlock (Pierce), 1% BSA, 0.05% Tween 20, 1 mM DTT) to remove unbound ligand and to reduce non-specific phage binding. […] Test compounds were prepared as 40× stocks in 100% DMSO and diluted directly into the assay (Final DMSO concentration=2.5%). All reactions were performed in polypropylene 384-well plates in a final volume of 0.04 ml. […] The beads were then re-suspended in elution buffer (1×PBS, 0.05% Tween 20, 0.5 μM non-biotinylated affinity ligand) and incubated at room temperature with shaking for 30 minutes. The kinase concentration in the eluates was measured by quantitative PCR. An illustration of the kinase interaction process is presented below. Kd/IC50 values were determined using a standard dose response curve using the hill equation. Curves were fitted using a non-linear least square fit with the Levenberg-Marquardt algorithm.
# [11] = biological target: T4, FLT3(D835V) (Homo sapiens, UniProt P36888, D835V); test: kinase competition binding assay; conditions: Table 1
# T4 construct: full-length constructs were used for small, single domain kinases, and catalytic domain constructs for large multi-domain kinases; T7 phage fusion (most assays) or DNA tag for qPCR (HEK-293-made kinases); made in house
# Experimental: as §3
# [12] = biological target: T5, JAK1 (Homo sapiens, UniProt P23458); test: kinase competition binding assay; conditions: Table 1
# T5 construct: full-length constructs were used for small, single domain kinases, and catalytic domain constructs for large multi-domain kinases; T7 phage fusion (most assays) or DNA tag for qPCR (HEK-293-made kinases); made in house
# Experimental: as §3
# [13] = biological target: T6, SRC (Homo sapiens, UniProt P12931); test: kinase competition binding assay; conditions: Table 1
# T6 construct: T7 phage fusion (most assays) or DNA tag for qPCR (HEK-293-made kinases); made in house
# Experimental: as §3
# [14] = biological target: T7, PDGFRa (Homo sapiens, UniProt P16234); test: kinase competition binding assay; conditions: Table 1
# T7 construct: catalytic domain constructs for large multi-domain kinases; T7 phage fusion (most assays) or DNA tag for qPCR (HEK-293-made kinases); made in house
# Experimental: as §3
# [15] = biological target: T8, BIKE (Homo sapiens, UniProt Q9NSY1); test: kinase competition binding assay; conditions: Table 1
# T8 construct: full-length constructs were used for small, single domain kinases, and catalytic domain constructs for large multi-domain kinases; T7 phage fusion (most assays) or DNA tag for qPCR (HEK-293-made kinases); made in house
# Experimental: as §3
# [16] = biological target: T9, PIK3CA(1800L) (Homo sapiens, UniProt P42336, I800L); test: kinase competition binding assay; conditions: Table 1
# T9 construct: T7 phage fusion (most assays) or DNA tag for qPCR (HEK-293-made kinases); made in house
# Experimental: as §3
# [17] = biological target: T10, JAK3 (Homo sapiens, UniProt P52333); test: kinase competition binding assay; conditions: Table 1
# T10 construct: full-length constructs were used for small, single domain kinases, and catalytic domain constructs for large multi-domain kinases; T7 phage fusion (most assays) or DNA tag for qPCR (HEK-293-made kinases); made in house
# Experimental: as §3
# [18] = biological target: T11, c-SRC (Homo sapiens, UniProt P12931); test: kinase competition binding assay; conditions: Table 1
# T11 construct: T7 phage fusion (most assays) or DNA tag for qPCR (HEK-293-made kinases); made in house
# Experimental: as §3
# [19] = biological target: T12, PIP5K1A (Homo sapiens, UniProt Q99755); test: kinase competition binding assay; conditions: Table 1
# T12 construct: T7 phage fusion (most assays) or DNA tag for qPCR (HEK-293-made kinases); made in house
# Experimental: as §3
# [20] = biological target: T13, TXK (Homo sapiens, UniProt P42681); test: kinase competition binding assay; conditions: Table 1
# T13 construct: T7 phage fusion (most assays) or DNA tag for qPCR (HEK-293-made kinases); made in house
# Experimental: as §3
# [21] = biological target: T14, MNK2 (Homo sapiens, UniProt Q9HBH9); test: kinase competition binding assay; conditions: Table 1
# T14 construct: T7 phage fusion (most assays) or DNA tag for qPCR (HEK-293-made kinases); made in house
# Experimental: as §3
# [22] = biological target: T15, JAK2 (Homo sapiens, UniProt O60674); test: kinase competition binding assay; conditions: Table 1
# T15 construct: full-length constructs were used for small, single domain kinases, and catalytic domain constructs for large multi-domain kinases; T7 phage fusion (most assays) or DNA tag for qPCR (HEK-293-made kinases); made in house
# Experimental: as §3
# [23] = biological target: T16, MELK (Homo sapiens, UniProt Q14680); test: kinase competition binding assay; conditions: Table 1
# T16 construct: full-length constructs were used for small, single domain kinases, and catalytic domain constructs for large multi-domain kinases; T7 phage fusion (most assays) or DNA tag for qPCR (HEK-293-made kinases); made in house
# Experimental: as §3
# [24] = biological target: T17, DRAK2 (Homo sapiens, UniProt O94768); test: kinase competition binding assay; conditions: Table 1
# T17 construct: full-length constructs were used for small, single domain kinases, and catalytic domain constructs for large multi-domain kinases; T7 phage fusion (most assays) or DNA tag for qPCR (HEK-293-made kinases); made in house
# Experimental: as §3
# [25] = biological target: T18, PDGFRa(T6741) (Homo sapiens, UniProt P16234, T674I); test: kinase competition binding assay; conditions: Table 1
# T18 construct: catalytic domain constructs for large multi-domain kinases; T7 phage fusion (most assays) or DNA tag for qPCR (HEK-293-made kinases); made in house
# Experimental: as §3
# [26] = biological target: T19, MEK5 (Homo sapiens, UniProt Q13163); test: kinase competition binding assay; conditions: Table 1
# T19 construct: T7 phage fusion (most assays) or DNA tag for qPCR (HEK-293-made kinases); made in house
# Experimental: as §3
# [27] = biological target: T20, Yes/yes1 (Homo sapiens, UniProt P07947); test: kinase competition binding assay; conditions: Table 1
# T20 construct: T7 phage fusion (most assays) or DNA tag for qPCR (HEK-293-made kinases); made in house
# Experimental: as §3
# [28] = biological target: SIRT-5 (Homo sapiens, UniProt Q9NXA8); test: inhibition of sirtuins; format: biochemical
# Text: Inhibition of Sirtuins, matrix metalloproteinase, bromodomains was also confirmed using standard protocols and the results are present in Table 2.
# [29] = tested on: MOLM-14 Acute Myeloid Leukemia cell line; test: anticancer cell proliferation assay (WST-1); format: cell-based; conditions: Table 4; read-out: IC50 Acute Myeloid Leukemia cell lines MOLM-14
# Experimental: as §2
# T20 sequence (P07947 whole entry, the tested form may be a part): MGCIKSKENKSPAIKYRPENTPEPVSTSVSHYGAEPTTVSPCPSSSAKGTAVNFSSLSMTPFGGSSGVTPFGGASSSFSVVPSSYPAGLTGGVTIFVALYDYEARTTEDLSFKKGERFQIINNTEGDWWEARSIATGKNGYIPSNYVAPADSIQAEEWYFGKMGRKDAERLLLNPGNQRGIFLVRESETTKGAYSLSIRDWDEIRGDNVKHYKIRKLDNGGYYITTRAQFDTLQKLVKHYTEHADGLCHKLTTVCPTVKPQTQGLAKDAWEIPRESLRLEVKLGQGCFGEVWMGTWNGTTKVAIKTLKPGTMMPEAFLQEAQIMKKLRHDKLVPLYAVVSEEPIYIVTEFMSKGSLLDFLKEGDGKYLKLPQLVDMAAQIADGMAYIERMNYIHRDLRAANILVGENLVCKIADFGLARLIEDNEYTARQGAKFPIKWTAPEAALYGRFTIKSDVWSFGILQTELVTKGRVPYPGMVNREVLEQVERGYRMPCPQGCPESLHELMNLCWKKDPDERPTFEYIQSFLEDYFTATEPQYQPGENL
# T13 sequence (P42681 whole entry, the tested form may be a part): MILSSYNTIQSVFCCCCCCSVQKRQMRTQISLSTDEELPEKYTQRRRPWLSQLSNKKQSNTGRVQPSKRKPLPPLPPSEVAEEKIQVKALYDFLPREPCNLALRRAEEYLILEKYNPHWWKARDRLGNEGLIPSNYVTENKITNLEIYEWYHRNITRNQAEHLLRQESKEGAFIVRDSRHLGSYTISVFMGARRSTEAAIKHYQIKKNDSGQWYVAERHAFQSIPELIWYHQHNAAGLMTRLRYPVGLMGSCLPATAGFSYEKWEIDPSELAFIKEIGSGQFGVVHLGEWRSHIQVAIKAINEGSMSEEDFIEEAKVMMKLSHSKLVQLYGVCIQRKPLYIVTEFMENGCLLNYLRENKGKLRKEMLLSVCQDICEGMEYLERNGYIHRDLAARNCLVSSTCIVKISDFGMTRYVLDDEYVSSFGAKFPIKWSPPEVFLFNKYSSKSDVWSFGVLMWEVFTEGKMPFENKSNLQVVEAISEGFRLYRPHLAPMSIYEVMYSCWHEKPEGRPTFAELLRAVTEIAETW
# T9 sequence (P42336 whole entry I800L, the tested form may be a part): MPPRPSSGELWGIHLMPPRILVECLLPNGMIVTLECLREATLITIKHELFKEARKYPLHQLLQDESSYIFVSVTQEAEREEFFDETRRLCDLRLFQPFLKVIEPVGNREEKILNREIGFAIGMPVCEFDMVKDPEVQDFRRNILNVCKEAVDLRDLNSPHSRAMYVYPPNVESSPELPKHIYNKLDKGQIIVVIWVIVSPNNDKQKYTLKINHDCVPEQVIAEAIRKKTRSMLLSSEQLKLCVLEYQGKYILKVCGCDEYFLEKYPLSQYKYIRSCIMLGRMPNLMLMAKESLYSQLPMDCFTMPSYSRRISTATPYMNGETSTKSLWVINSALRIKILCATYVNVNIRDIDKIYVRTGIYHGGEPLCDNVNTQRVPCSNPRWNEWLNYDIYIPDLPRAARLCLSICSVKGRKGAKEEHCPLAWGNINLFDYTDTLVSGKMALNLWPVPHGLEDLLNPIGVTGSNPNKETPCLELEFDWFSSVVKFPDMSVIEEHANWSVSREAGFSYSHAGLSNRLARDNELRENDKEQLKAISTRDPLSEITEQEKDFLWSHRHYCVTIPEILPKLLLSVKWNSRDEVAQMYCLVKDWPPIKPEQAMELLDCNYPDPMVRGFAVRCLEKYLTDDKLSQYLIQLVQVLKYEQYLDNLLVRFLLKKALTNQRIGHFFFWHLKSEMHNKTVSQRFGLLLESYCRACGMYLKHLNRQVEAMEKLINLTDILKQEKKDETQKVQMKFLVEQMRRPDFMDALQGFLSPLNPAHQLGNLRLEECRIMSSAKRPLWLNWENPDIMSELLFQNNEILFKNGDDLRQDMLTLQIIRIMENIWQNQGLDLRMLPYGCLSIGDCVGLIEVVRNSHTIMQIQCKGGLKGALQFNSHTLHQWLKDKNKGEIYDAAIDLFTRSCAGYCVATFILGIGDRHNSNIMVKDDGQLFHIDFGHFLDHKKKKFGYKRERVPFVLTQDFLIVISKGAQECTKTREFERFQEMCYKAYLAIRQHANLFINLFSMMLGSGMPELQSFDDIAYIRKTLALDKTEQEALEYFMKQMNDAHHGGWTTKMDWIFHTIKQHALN
# T12 sequence (Q99755 whole entry, the tested form may be a part): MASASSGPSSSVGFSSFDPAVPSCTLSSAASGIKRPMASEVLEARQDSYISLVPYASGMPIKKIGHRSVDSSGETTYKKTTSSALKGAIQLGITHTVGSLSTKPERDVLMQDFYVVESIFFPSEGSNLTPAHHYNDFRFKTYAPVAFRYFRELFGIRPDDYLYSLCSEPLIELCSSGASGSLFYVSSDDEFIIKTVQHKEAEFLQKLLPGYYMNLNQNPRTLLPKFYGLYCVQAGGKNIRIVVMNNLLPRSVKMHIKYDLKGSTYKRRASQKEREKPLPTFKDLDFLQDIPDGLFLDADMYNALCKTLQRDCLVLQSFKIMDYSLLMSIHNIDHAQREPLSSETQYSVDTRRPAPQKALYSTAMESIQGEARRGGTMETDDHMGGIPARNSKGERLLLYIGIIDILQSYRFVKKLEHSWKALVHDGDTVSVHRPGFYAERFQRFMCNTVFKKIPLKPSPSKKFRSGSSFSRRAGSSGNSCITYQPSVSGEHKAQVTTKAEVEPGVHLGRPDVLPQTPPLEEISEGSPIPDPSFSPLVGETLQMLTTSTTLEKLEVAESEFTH
# T3 sequence (Q9UBF8 whole entry, the tested form may be a part): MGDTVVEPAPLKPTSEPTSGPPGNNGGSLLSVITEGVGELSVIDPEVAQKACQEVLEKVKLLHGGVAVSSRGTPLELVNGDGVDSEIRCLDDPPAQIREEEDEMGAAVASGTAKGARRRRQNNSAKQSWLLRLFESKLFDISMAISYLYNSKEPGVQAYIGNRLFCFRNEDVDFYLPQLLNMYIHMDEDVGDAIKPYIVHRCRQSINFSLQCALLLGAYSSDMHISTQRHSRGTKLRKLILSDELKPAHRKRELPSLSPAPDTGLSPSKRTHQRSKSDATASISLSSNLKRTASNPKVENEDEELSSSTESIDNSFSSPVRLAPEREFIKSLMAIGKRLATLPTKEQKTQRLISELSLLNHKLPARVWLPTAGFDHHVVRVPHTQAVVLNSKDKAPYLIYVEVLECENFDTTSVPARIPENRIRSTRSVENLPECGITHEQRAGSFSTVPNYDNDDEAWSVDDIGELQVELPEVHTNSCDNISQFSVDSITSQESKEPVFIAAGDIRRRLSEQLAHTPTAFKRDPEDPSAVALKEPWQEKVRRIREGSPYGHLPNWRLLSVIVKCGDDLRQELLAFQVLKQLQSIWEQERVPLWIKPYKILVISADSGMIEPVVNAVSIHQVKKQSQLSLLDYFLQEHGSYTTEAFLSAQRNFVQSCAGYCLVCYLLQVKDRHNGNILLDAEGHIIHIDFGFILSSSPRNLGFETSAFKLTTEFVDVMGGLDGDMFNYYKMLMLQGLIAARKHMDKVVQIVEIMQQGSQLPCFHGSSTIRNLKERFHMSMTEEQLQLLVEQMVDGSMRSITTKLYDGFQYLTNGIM
# T5 sequence (P23458 whole entry, the tested form may be a part): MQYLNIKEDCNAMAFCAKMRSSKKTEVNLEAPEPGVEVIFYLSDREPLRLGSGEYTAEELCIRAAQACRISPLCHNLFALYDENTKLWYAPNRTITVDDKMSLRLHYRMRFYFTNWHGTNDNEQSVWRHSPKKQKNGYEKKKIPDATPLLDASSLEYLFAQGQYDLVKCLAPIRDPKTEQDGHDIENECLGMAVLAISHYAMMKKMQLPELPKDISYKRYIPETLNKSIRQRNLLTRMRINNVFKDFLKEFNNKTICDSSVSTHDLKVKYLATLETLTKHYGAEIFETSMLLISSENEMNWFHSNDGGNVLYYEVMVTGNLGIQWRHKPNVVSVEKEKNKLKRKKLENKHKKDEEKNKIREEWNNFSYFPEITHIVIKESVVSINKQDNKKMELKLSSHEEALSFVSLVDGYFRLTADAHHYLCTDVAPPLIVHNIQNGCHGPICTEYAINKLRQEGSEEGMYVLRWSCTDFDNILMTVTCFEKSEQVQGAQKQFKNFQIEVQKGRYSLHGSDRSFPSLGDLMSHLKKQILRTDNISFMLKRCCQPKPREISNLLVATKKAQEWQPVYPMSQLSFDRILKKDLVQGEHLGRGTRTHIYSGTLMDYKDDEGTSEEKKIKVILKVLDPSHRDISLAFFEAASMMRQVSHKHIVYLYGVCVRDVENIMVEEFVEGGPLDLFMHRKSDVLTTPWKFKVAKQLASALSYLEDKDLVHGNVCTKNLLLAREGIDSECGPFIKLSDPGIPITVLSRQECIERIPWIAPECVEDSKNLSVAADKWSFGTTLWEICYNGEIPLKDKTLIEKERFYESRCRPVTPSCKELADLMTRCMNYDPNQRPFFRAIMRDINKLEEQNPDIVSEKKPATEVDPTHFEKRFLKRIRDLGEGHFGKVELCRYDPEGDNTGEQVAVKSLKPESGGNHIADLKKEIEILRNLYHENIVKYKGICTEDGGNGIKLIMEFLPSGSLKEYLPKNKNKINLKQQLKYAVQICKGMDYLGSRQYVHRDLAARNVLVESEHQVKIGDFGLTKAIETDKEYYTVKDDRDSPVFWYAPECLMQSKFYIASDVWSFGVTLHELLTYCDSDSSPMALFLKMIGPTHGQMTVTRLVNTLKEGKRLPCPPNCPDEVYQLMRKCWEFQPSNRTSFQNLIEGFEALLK
# T17 sequence (O94768 whole entry, the tested form may be a part): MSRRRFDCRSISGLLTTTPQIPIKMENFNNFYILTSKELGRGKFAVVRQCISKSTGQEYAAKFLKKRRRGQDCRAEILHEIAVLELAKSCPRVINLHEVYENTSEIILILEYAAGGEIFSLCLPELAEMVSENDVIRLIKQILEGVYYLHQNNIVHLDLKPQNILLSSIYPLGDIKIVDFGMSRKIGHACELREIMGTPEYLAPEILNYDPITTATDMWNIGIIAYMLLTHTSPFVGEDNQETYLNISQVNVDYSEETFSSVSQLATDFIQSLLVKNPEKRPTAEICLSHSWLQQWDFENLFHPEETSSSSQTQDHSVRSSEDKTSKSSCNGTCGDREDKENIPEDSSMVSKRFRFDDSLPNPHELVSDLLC
smiles,measurement,setting,value
COc1ccc(-c2cc(=O)c3c(O)cc(O)cc3o2)cc1 [FBLGS-73],IC50,[1],49 nM
same,IC50,[2],> 100000 nM
same,IC50,[3],> 100000 nM
COc1cc(-c2cc(=O)c3c(O)c(CC=C(C)C)c(O)cc3o2)ccc1O [cannflavin B],cytotoxicity against cancer cells,[4],not cytotoxic
COc1cc(-c2cc(=O)c3c(O)c(CC=C(C)C)c(O)cc3o2)ccc1O [FBL-03B],inhibition of tumor compared to the control,[5],significant inhibition of tumor
"COc1cc(-c2cc(=O)c3c(O)cc(O)c(CC=C(C)C)c3o2)ccc1O [FBL-03G, Caflanone]",IC50,[6],38.2 nM
same,inhibition of tumor compared to the control,[5],significant inhibition of tumor
same,IC50,"[7]; Table 3, 72 hours, WST-1, read-out: IC50 MV4-11 (Leukemia)",38.6 nM
same,IC50,[8],950 nM
same,IC50,[9],64.7 nM
same,IC50,[10],136 nM
same,IC50,[11],12.5 nM
same,IC50,[12],644 nM
same,IC50,[13],1700 nM
same,IC50,[14],698 nM
same,IC50,[15],81 nM
same,IC50,[16],125 nM
same,IC50,[17],5.58 nM
same,IC50,[18],1100 nM
same,IC50,[19],320 nM
same,IC50,[20],164 nM
same,IC50,[21],549 nM
same,IC50,[22],1850 nM
same,IC50,[23],88.9 nM
same,IC50,[24],1400 nM
same,IC50,[25],1670 nM
same,IC50,[26],190 nM
same,IC50,[27],294 nM
COc1cc(-c2cc(=O)c3c(O)c(C/C=C(\C)CCC=C(C)C)c(O)cc3o2)ccc1O [FBL-03A],IC50,[28],123000 nM
COc1ccc(-c2cc(=O)c3c(O)cc(O)cc3o2)cc1O [FBLGS-71],IC50,[2],> 100000 nM
same,IC50,[29],3680 nM
same,IC50,"[7]; Table 4, read-out: IC50 Acute Myeloid Leukemia cell lines MV4-11",3260 nM
same,IC50,[3],> 100000 nM
